Assay results taken from patent US20030100550A1, “Carboxamide diazepin derivatives, preparation method, use as medicines, pharmaceutical compositions and use thereof” (priority 2002, published 2003).

Key:
Format in all cases: biochemical
[1] = molecular target: T1, Cathepsin B (Homo sapiens, UniProt P07858); test: Study of Cathepsin B inhibition (fluorescence, Z-arg-arg-AMC); conditions: for Cathepsin B, percentage in parentheses beside IC50 value (% inhibition): printed beside 20 μM, meaning not explained; for IC50: substrate Z-arg-arg-AMC 20 μM, enzyme 16 ng/ml, 1 hour at ambient temperature
T1 construct: purchased Calbiochem
Description: (§1) The products to be tested (10 mM) are diluted to […] in DMSO and distributed into Nunc polystyrene 96 well plates at a rate of 2 μl per well. Column 12 of the plate is reserved for the controls and therefore receives […] of DMSO (without products) per well. The plates are stored at −80° C. and thawed on the day of the experiment.
(§2) The products are diluted to 50 μM by adding 38 μl of reaction buffer: sodium acetate 100 mM, EDTA 5 mM, DTT […] pH 5.5. The addition as well as all the operations by pipette are carried out with a CybiWell 96 tip pipette. After mixing the solutions, each product is transferred into 2 wells (duplicates) of a Greiner black 384 well plate at a rate of 10 μl per well. Two 96-well plates can therefore be tested in a 384-well plate.
(§3) A solution of substrate at 50 μM, Z-Val-arg-AMC (Calbiochem), is prepared in the reaction buffer. The substrate, is then distributed into all the wells of the 384-well plate (20 μl per well).
(§4) A solution of Cathepsin K at 12.5 ng/ml is prepared in the reaction buffer and distributed into all the wells of the 384-well plate (20 μl per well) except for the 16 wells serving as 100% inhibition controls (column 23 and 24, lines I to P) which receive 20 μl of enzyme-free buffer.
(§5) The plates are then incubated 2H at ambient temperature, then read on Fluoroskan (Labsystems): excitation 390 nm; emission 460 nm
(§6) The final concentrations of each of the reagents are: products 10 μM, substrate 20 μM, enzyme 5 ng/ml.
(§7) The % inhibition for each of the products is calculated by using points at 0 and 100% inhibition of each plate as references. The products presenting a significant inhibition are then retested on a range of concentrations from 50 to 0.5 μM to determine an IC50.
Study of Cathepsin B Inhibition:
(§8) Protocol identical to that of Cathepsin K except for:
Z-arg-arg-AMC substrate (Calbiochem), solution at 50 μM, final concentration 20 μM
Cathepsin B (Calbiochem), solution at 40 ng/ml, final concentration 16 ng/ml
Incubation for 1 hour at ambient temperature

[2] = molecular target: T2, Papain (Carica papaya, UniProt P00784); test: Study of Papain inhibition (fluorescence); conditions: for IC50: enzyme 20 ng/ml, 30 minutes at ambient temperature; for Papain, percentage in parentheses beside IC50 value (% inhibition): printed beside 20 μM, meaning not explained
T2 construct: purchased Sigma
T2 sequence (P00784 134-345): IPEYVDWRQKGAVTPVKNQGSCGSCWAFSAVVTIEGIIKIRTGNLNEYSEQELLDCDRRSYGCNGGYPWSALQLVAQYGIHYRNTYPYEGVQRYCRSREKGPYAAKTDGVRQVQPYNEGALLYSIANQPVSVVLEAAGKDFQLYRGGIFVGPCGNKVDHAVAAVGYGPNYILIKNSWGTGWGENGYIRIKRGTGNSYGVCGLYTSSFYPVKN
Description: as §1, §2, §3, §4, §5, §6, §7
Study of Papain Inhibition:
as §8
Papain (Sigma), solution at 50 ng/ml, final concentration 20 ng/ml
Incubation for 30 minutes at ambient temperature

[3] = molecular target: T3, Cathepsin K (Homo sapiens, UniProt P43235); test: Study of Cathepsin K inhibition (fluorescence, Z-Val-arg-AMC); conditions: substrate Z-Val-arg-AMC 20 μM, enzyme 5 ng/ml, 2H at ambient temperature; read-out: Cathepsin K IC50
T3 sequence (P43235 115-329): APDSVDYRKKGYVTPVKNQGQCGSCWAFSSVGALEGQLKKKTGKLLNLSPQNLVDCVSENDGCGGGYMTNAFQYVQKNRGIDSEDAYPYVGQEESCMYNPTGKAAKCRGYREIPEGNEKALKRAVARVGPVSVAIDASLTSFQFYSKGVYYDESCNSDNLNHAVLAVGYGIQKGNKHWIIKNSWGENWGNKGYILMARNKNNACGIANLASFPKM
How it was run: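 Recombinant cathepsin K (5 ng/ml final) with 20 μM Z-Val-Arg-AMC in 100 mM sodium acetate, 5 mM EDTA, DTT, pH 5.5; compounds screened at 10 μM in duplicate, 2 h at ambient temperature, fluorescence ex 390/em 460 nm. % inhibition vs plate 0/100% controls; actives retested 50–0.5 μM for IC50.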

Structure (SMILES)	Cathepsin B, percentage in parentheses beside IC50 value (% inhibition) [1]	IC50 [2]	IC50 [3]	IC50 [1]	Papain, percentage in parentheses beside IC50 value (% inhibition) [2]
CC(C)(C)Oc1ccc(C[C@H](NC(=O)[C@@H]2CCCN3C(=O)CC[C@H](NC(=O)Nc4ccc(Oc5ccccc5)cc4)C(=O)N23)C(=O)C=[N+]=[N-])cc1 [Example 54, 9-[(9S)-[[(4-phenoxyphenyl)amino]carbonyl]amino]-N-[(2S)-4-diazo-1-[4-[(1,1-dimethyl)ethoxy]phenyl]-3-oxo-2-butyl]-6H-(1S)-pyridazino[1,2-a][1,2]diazepine-1-carboxamide]	30%	15 µM			
C=CCOC(=O)CC[C@H](NC(=O)[C@@H]1CCCN2C(=O)CCC[C@H](NC(=O)NC3CCCCC3)C(=O)N12)C(=O)COC(=O)c1c(Cl)cccc1Cl [Example 122, (2-propenyl)(4S)6-[(2,6-dichlorobenzoyl)oxy]-4-[[[(1S,9S)-9-[[(cyclohexylamino)carbonyl]amino]-octahydro-6,10-dioxo-o-6H-pyridazino[1,2-a][1,2]diazepine-1-yl]carbonyl]amino]-5-oxo-hexanoate]			18 µM	0.7 µM	45%
C=CCOC(=O)CC[C@H](NC(=O)[C@@H]1CCCN2C(=O)CC[C@H](NC(=O)Nc3ccc(Oc4ccccc4)cc3)C(=O)N12)C(=O)COC(=O)c1c(Cl)cccc1Cl [Example 132, (2-propenyl)(4S)6-[(2,6-dichlorobenzoyl)oxy]-4-[[[(1S,9S)-9-[[[(4-phenoxyphenyl)amino]carbonyl]amino]-octahydro-6,10-dioxo-6H-pyridazino[1,2-a][1,2]diazepine-1-yl]carbonyl]amino]-5-oxo-hexanoate]		6 µM	20 µM	2 µM	
[N-]=[N+]=CC(=O)[C@H](Cc1ccccc1)NC(=O)[C@@H]1CCCN2C(=O)CC[C@H](NC(=O)Nc3ccc(Oc4ccccc4)cc3)C(=O)N12 [Example 161, 9-[(9S)[[(4-phenoxyphenyl)amino]carbonyl]amino]-N-((2S)-4-diazo-1-phenyl-3-oxo-2-butyl)-octahydro-6,10-dioxo-6H-(1S)-pyridazino[1,2-a][1,2]diazepine-1-carboxamide]		19 µM		9 µM	
C[C@H](NC(=O)[C@@H]1CCCN2C(=O)CC[C@H](NC(=O)NCCc3cccs3)C(=O)N12)C(=O)C=[N+]=[N-] [Example 172, 9-[(9S)-[[[3-(thien-2-yl)-ethyl]amino]carbonyl]amino]-N-((2S)-4-diazo-3-oxo-2-butyl)-octahydro-6,10-dioxo-6H-(1S)-pyridazino[1,2-a][1,2]diazepine-1-carboxamide]	20 (20%)		20 µM		10%
O=C(NCCc1cccs1)N[C@H]1CCC(=O)N2CCC[C@@H](C(=O)N[C@@H](Cc3ccccc3)C(=O)COC(=O)c3c(Cl)cccc3Cl)N2C1=O [Example 224, 9-[(9S)-[[[2-(thien-2-yl)-ethyl]amino]carbonyl]amino]-N-[(2S)-1-phenyl-4-[(-2,6-dichlorobenzoyl)oxy]-3-oxo-2-butyl]-octahydro-6,10-dioxo-6H-(1S)-pyridazino[1,2-a][1,2]diazepine-1-carboxamide]		8 µM	20 µM	9 µM	
CC(C)[C@H](NC(=O)[C@@H]1CCCN2C(=O)CC[C@H](NC(=O)c3ccco3)C(=O)N12)C(=O)CSc1nc2ccccc2s1 [Example 374, 9-[(9S)-[(2-furanyl)carbonyl]amino]-N-[(3S)-1-[(benzothiazol-2-yl)thio]-4-methyl-2-oxo-3-pentyl]-octahydro-6,10-dioxo-6H-(1S)-pyridazino[1,2-a][1,2]diazepine-1-carboxamide]		7 µM	20 µM		
CC(C)[C@H](NC(=O)[C@@H]1CCCN2C(=O)CC[C@H](NC(=O)NC3CCCCC3)C(=O)N12)C(=O)CSc1nc2ccccc2s1 [Example 382, 9-[(9S)-[(cyclohexylamino)carbonyl]amino]-N-[(3S)-1-[(benzothiazol-2-yl)thio]-4-methyl-2-oxo-3-pentyl]-octahydro-6,10-dioxo-6H-(1S)-pyridazino[1,2-a][1,2]diazepine-1-carboxamide]		9 µM	20 µM		
CC(C)[C@H](NC(=O)[C@@H]1CCCN2C(=O)CC[C@H](NC(=O)Nc3ccc(Oc4ccccc4)cc3)C(=O)N12)C(=O)CSc1nnnn1-c1ccccc1 [Example 389, 9-[(9S)-[[(4-phenoxyphenyl)amino]carbonyl]amino]-N-[(3S)-1-[(1-phenyl-1H-tetrazol-5-yl)thio]-4-methyl-2-oxo-3-pentyl]-octahydro-6,10-dioxo-6H-(1S)-pyridazino [1,2-a][1,2]diazepine-1-carboxamide]		6 µM	20 µM		
CC(C)[C@H](NC(=O)[C@@H]1CCCN2C(=O)CC[C@H](NC(=O)Nc3ccc(Oc4ccccc4)cc3)C(=O)N12)C(=O)CSc1nc2ccccc2s1 [Example 390]		6 µM	20 µM	19 µM	
CC(C)[C@H](NC(=O)[C@@H]1CCCN2C(=O)CC[C@H](NC(=O)NCCc3cccs3)C(=O)N12)C(=O)CSc1nnnn1-c1ccccc1 [Example 397, 9-[(9S)-[[[2-(thien-2-yl)-ethyl]amino]carbonyl]amino]-N-[(3S)-1-[(1-phenyl-1H-tetrazol-5-yl)thio]-4-methyl-2-oxo-3-pentyl]-octahydro-6,10-dioxo-6H-(1S)-pyridazino [1,2-a][1,2]diazepine-1-carboxamide]		18 µM	20 µM		
C[C@H](NC(=O)[C@@H]1CCCN2C(=O)CC[C@H](NC(=O)Nc3ccc(Oc4ccccc4)cc3)C(=O)N12)C(=O)CSc1nc2ccccc2s1 [Example 450, 9-[(9S)-[[(4-phenoxyphenyl)amino]carbonyl]amino]-N-[(2S)-4-[(benzothiazol-2-yl)thio]-3-oxo-2-butyl]-octahydro-6,10-dioxo-6H-(1S)-pyridazino[1,2-a][1,2]diazepine-1-carboxamide]		18 µM	20 µM		
